Measured values taken from ChEMBL document CHEMBL4325844, “Development of 2-amino-4-phenylthiazole analogues to disrupt myeloid differentiation factor 88 and prevent inflammatory responses in acute lung injury” (Eur J Med Chem, 2019).
Active and inactive are the calls of the source. No cut-off for these calls is given here.

Columns and labels:
Peritoneal macrophage [1] = test: Antiinflammatory activity in ICR mouse primary peritoneal macrophages assessed as inhibition of LPS-induced TNFalpha production at 20 uM preincubated for 60 mins followed by LPS stimulation and measured after 24 hrs by ELISA relative to control; type: functional
Peritoneal macrophage [2] = test: Antiinflammatory activity in ICR mouse primary peritoneal macrophages assessed as inhibition of LPS-induced IL-6 production at 20 uM preincubated for 60 mins followed by LPS stimulation and measured after 24 hrs by ELISA relative to control; type: functional
[3] = Cytotoxicity against rat H9c2 cells assessed as cell viability at 20 uM after 24 hrs by MTT assay relative to control; type: cell-based; conditions: read-out: Activity
[4] = Cytotoxicity against rat NRK cells assessed as cell viability at 20 uM after 24 hrs by MTT assay relative to control; type: cell-based; conditions: read-out: Activity
Peritoneal macrophage [5] = test: Antiinflammatory activity in ICR mouse primary peritoneal macrophages assessed as inhibition of LPS-induced IL-6 production preincubated for 2 hrs followed by LPS stimulation and measured after 22 hrs by ELISA; type: functional, cell-based
[6] = Cytotoxicity against ICR mouse primary peritoneal macrophages assessed as cell viability at 20 uM after 24 hrs by MTT assay relative to control; type: cell-based, Peritoneal macrophage; conditions: read-out: Activity
Peritoneal macrophage [7] = test: Antiinflammatory activity in ICR mouse primary peritoneal macrophages assessed as inhibition of LPS-induced TNFalpha production preincubated for 2 hrs followed by LPS stimulation and measured after 22 hrs by ELISA; type: functional, cell-based
Mus musculus [8] = test: Antiinflammatory activity in LPS-induced C57/BL6 mouse model of acute lung injury assessed as reduction in lung wet/dry ratio at 10 mg/kg, ip pretreated for 30 mins followed by LPS challenge measured after 6 hrs; type: functional, organism-based
Mus musculus [9] = test: Antiinflammatory activity in LPS-induced C57/BL6 mouse model of acute lung injury assessed as reduction in TNFalpha level in BALF at 10 mg/kg, ip pretreated for 30 mins followed by LPS challenge measured after 6 hrs by ELISA; type: functional, organism-based
Mus musculus [10] = test: Antiinflammatory activity in LPS-induced C57/BL6 mouse model of acute lung injury assessed as reduction in TNFalpha level in serum at 10 mg/kg, ip pretreated for 30 mins followed by LPS challenge measured after 6 hrs by ELISA; type: functional, organism-based
[11] = molecular target: Myeloid differentiation primary response protein MyD88 (Mus musculus) (UniProt P22366); test: Inhibition of MyD88 in ICR mouse primary peritoneal macrophages assessed as reduction in LPS-induced JNK phosphorylation at 20 uM preincubated for 30 mins followed by LPS-stimulation and measured after 20 mins by Western blot analysis
Myeloid differentiation primary response protein MyD88 (Mus musculus), sequence (P22366 whole entry): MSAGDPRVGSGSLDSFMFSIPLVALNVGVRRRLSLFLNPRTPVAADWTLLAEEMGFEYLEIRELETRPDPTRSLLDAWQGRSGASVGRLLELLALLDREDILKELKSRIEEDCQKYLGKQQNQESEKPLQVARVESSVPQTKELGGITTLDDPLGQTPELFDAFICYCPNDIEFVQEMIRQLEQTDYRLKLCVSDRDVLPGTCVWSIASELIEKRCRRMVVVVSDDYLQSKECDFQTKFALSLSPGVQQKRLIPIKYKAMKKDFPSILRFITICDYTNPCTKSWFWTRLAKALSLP

Mus musculus [12] = test: Antiinflammatory activity in LPS-induced C57/BL6 mouse model of acute lung injury assessed as reduction in IL6 level in serum at 10 mg/kg, ip pretreated for 30 mins followed by LPS challenge measured after 6 hrs by ELISA; type: functional, organism-based
[13] = molecular target: Myeloid differentiation primary response protein MyD88 (Mus musculus) (UniProt P22366); test: Inhibition of MyD88 in ICR mouse primary peritoneal macrophages assessed as reduction in LPS-induced ERK phosphorylation at 20 uM preincubated for 30 mins followed by LPS-stimulation and measured after 20 mins by Western blot analysis
[14] = molecular target: Myeloid differentiation primary response protein MyD88 (Mus musculus) (UniProt P22366); test: Inhibition of MyD88 in ICR mouse primary peritoneal macrophages assessed as reduction in LPS-induced p38 MAPK phosphorylation at 20 uM preincubated for 30 mins followed by LPS-stimulation and measured after 20 mins by Western blot analysis
Mus musculus [15] = test: Antiinflammatory activity in LPS-induced C57/BL6 mouse model of acute lung injury assessed as reduction in IL6 level in BALF at 10 mg/kg, ip pretreated for 30 mins followed by LPS challenge measured after 6 hrs by ELISA; type: functional, organism-based
[16] = molecular target: T1, Myeloid differentiation primary response protein MyD88 (Homo sapiens, UniProt Q99836); test: Inhibition of LPS-induced HA-tagged MyD88 (unknown origin) interaction with FLAG-tagged MyD88 (unknown origin) expressed in HEK293 cells at 20 uM after 48 hrs by co-immunoprecipitation method; type: cell-based
T1 sequence (Q99836 whole entry, the tested form may be a part): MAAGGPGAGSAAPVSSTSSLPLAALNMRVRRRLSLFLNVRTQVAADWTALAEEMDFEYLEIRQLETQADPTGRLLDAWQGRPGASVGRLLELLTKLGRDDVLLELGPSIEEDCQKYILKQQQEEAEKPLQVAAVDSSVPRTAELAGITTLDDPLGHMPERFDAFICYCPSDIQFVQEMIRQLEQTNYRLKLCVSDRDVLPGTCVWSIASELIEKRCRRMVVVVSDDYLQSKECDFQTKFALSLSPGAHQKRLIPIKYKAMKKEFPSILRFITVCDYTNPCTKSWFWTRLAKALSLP

[17] = molecular target: T1, Myeloid differentiation primary response protein MyD88; test: Binding affinity to recombinant human MyD88 TIR domain (157 to 296 residues) expressed in Escherichia coli BL21(DE3) by surface plasmon resonance analysis

Compound | inhibition at 20 µM (Peritoneal macrophage [1]) [%] | inhibition at 20 µM (Peritoneal macrophage [2]) [%] | further results
O=C(CCN1CCN(Cc2cccc([N+](=O)[O-])c2)CC1)Nc1nc(-c2ccc(F)c(F)c2)cs1 | 61.8 | 86.7 | 
COc1ccc(CN2CCN(CCC(=O)Nc3nc(-c4ccccc4)cs3)CC2)cc1 | 40.2 | 75.3 | 
N#Cc1cccc(CN2CCN(CCC(=O)Nc3nc(-c4ccccc4)cs3)CC2)c1 | 52.3 | 78.3 | 
COc1ccc(S(=O)(=O)N2CCN(CCC(=O)Nc3nc(-c4ccccc4)cs3)CC2)cc1 | 33.1 | 35.6 | 
COc1ccc(S(=O)(=O)N2CCN(CCC(=O)Nc3nc(-c4ccccc4)cs3)CC2)cc1OC | 37.2 | 49.5 | 
CCOc1ccc(-c2csc(NC(=O)CCN3CCN(Cc4cccc([N+](=O)[O-])c4)CC3)n2)cc1 | 74.3 | 85.3 | 
O=C(CCN1CCN(Cc2ccc(Cl)cc2)CC1)Nc1nc(-c2ccccc2)cs1 | 52.8 | 63.4 | 
CN1CCN(CCC(=O)Nc2nc(-c3ccccc3)cs2)CC1 |  |  | inhibition (Peritoneal macrophage [1]): inactive; inhibition (Peritoneal macrophage [2]): inactive
CC(C)(C)c1ccc(CN2CCN(CCC(=O)Nc3nc(-c4ccccc4)cs3)CC2)cc1 | 12 | 51.8 | 
N#Cc1ccc(CN2CCN(CCC(=O)Nc3nc(-c4ccccc4)cs3)CC2)cc1 | 33.7 | 67.3 | 
O=C(CCN1CCN(Cc2ccc3ccccc3c2)CC1)Nc1nc(-c2ccccc2)cs1 | 2.41 | 18.3 | 
COc1cccc(CN2CCN(CCC(=O)Nc3nc(-c4ccccc4)cs3)CC2)c1 | 36.1 | 53.8 | 
Cc1ccc(-c2csc(NC(=O)CCN3CCN(Cc4cccc([N+](=O)[O-])c4)CC3)n2)cc1 | 79 | 75.1 | 
O=C(CCN1CCN(Cc2cccc([N+](=O)[O-])c2)CC1)Nc1nc2ccccc2s1 | 63.6 | 64.2 | 
COc1ccc(-c2csc(NC(=O)CCN3CCN(Cc4cccc([N+](=O)[O-])c4)CC3)n2)cc1OC | 87.6 | 90.2 | viability at 24 h, 20 µM [3]: > 80%; viability at 24 h, 20 µM [4]: > 80%; IC50 (Peritoneal macrophage [5]): 3.15 µM; inhibition (Peritoneal macrophage [5]): Dose-dependent effect; viability at 24 h, 20 µM [6]: > 80%; IC50 (Peritoneal macrophage [7]): 1.77 µM; inhibition (Peritoneal macrophage [7]): Dose-dependent effect
COc1ccc(-c2csc(NC(=O)CCN3CCN(Cc4cccc([N+](=O)[O-])c4)CC3)n2)cc1 | 73.8 | 82 | 
O=C(CCN1CCN(Cc2cccc([N+](=O)[O-])c2)CC1)Nc1nc(-c2ccc([N+](=O)[O-])cc2)cs1 | 32.4 | 58.8 | 
O=C(CCN1CCN(Cc2cccc([N+](=O)[O-])c2)CC1)Nc1nc(-c2ccc(C3CCCCC3)cc2)cs1 | 19.8 | 28.5 | 
O=C(CCN1CCN(Cc2cccc([N+](=O)[O-])c2)CC1)Nc1nc(-c2ccccc2Br)cs1 | 83.2 | 86.9 | viability at 24 h, 20 µM [3]: > 80%; viability at 24 h, 20 µM [4]: > 80%; IC50 (Peritoneal macrophage [5]): 4.65 µM; inhibition (Peritoneal macrophage [5]): Dose-dependent effect; viability at 24 h, 20 µM [6]: > 80%; IC50 (Peritoneal macrophage [7]): 5.15 µM; inhibition (Peritoneal macrophage [7]): Dose-dependent effect
O=C(CCN1CCN(Cc2cccc([N+](=O)[O-])c2)CC1)Nc1nc(-c2ccccc2)cs1 | 64.2 | 81.5 | 
O=C(CCN1CCN(Cc2ccc(F)cc2)CC1)Nc1nc(-c2ccccc2)cs1 | 47.9 | 70.9 | 
O=C(CCN1CCN(CCc2ccccc2)CC1)Nc1nc(-c2ccccc2)cs1 | 9.1 | 27.4 | 
O=C(CCN1CCN(S(=O)(=O)c2ccc([N+](=O)[O-])cc2)CC1)Nc1nc(-c2ccccc2)cs1 | 38.6 | 40.6 | 
O=C(CCN1CCN(S(=O)(=O)c2ccc(Cl)cc2)CC1)Nc1nc(-c2ccccc2)cs1 | 37.6 | 70.3 | 

Compound | inhibition at 20 µM (Peritoneal macrophage [1]) [%] | inhibition at 20 µM (Peritoneal macrophage [2]) [%] | further results
O=C(CCN1CCN(Cc2ccc([N+](=O)[O-])cc2)CC1)Nc1nc(-c2ccccc2)cs1 | 56.7 | 76.8 | 
N#Cc1ccc(-c2csc(NC(=O)CCN3CCN(Cc4cccc([N+](=O)[O-])c4)CC3)n2)cc1 | 49.7 | 50.6 | 
COC(=O)c1csc(NC(=O)CCN2CCN(Cc3cccc([N+](=O)[O-])c3)CC2)n1 | 31.7 | 56.3 | 
O=C(CCN1CCN(Cc2cccc([N+](=O)[O-])c2)CC1)Nc1nc(-c2ccc(F)cc2)cs1 | 65.6 | 86.4 | 
O=C(CCN1CCN(Cc2cccc(F)c2)CC1)Nc1nc(-c2ccccc2)cs1 | 40.5 | 68.5 | 
Cc1ccc(CN2CCN(CCC(=O)Nc3nc(-c4ccccc4)cs3)CC2)cc1 | 27.1 | 67.6 | 
O=C(CCN1CCN(Cc2cccc([N+](=O)[O-])c2)CC1)Nc1nc(-c2ccco2)cs1 | 65.2 | 78.7 | 
O=C(CCN1CCN(Cc2cccc([N+](=O)[O-])c2)CC1)Nc1nc(C2CCC2)cs1 | 61.4 | 66.3 | 
O=C(CCN1CCN(Cc2cccc([N+](=O)[O-])c2)CC1)Nc1nc(-c2cccc([N+](=O)[O-])c2)cs1 | 51.2 | 76.3 | 
COc1cc(CN2CCN(CCC(=O)Nc3nc(-c4ccccc4)cs3)CC2)cc(OC)c1 | 34.2 | 57 | 
O=C(CCN1CCN(Cc2cccc([N+](=O)[O-])c2)CC1)Nc1nc(-c2cccc(Br)c2)cs1 | 52.5 | 73 | 
O=C(CCN1CCN(S(=O)(=O)c2ccccc2)CC1)Nc1nc(-c2ccccc2)cs1 | 17.6 | 29.9 | 
Nc1cccc(CN2CCN(CCC(=O)Nc3nc(-c4ccccc4)cs3)CC2)c1 | 13.6 | 11.5 | 
Nc1ccc(CN2CCN(CCC(=O)Nc3nc(-c4ccccc4)cs3)CC2)cc1 | 10.1 | 45.8 | 
O=C(CCN1CCN(Cc2ccccc2)CC1)Nc1nc(-c2ccccc2)cs1 | 47 | 69.3 | Activity (Mus musculus [8]): Active; Activity (Mus musculus [9]): Active; Activity (Mus musculus [10]): Active; inhibition [11]: Active; Activity (Mus musculus [12]): Active; inhibition [13]: Active; inhibition [14]: Active; Activity (Mus musculus [15]): Active; IC50 (Peritoneal macrophage [5]): 10.2 µM; inhibition [16]: Active; IC50 (Peritoneal macrophage [7]): 11.9 µM; Ka [17]: 3340 M⁻¹ s⁻¹; Kd [17]: 180 µM; Kdiss [17]: 0.6 s⁻¹
O=C(CCN1CCN(Cc2ccc(C(F)(F)F)cc2)CC1)Nc1nc(-c2ccccc2)cs1 | 55.3 | 69 | 
O=C(CCN1CCN(S(=O)(=O)c2ccc(C(F)(F)F)cc2)CC1)Nc1nc(-c2ccccc2)cs1 | 2.54 |  | inhibition (Peritoneal macrophage [2]): inactive
O=C(CCN1CCN(Cc2cccc(Cl)c2)CC1)Nc1nc(-c2ccccc2)cs1 | 48.8 | 74.5 | 
O=C(CCN1CCN(Cc2cccc([N+](=O)[O-])c2)CC1)Nc1nc(-c2ccc(Br)cc2)cs1 | 71.9 | 81 | 
O=C(CCN1CCN(S(=O)(=O)c2cc(Cl)cc(Cl)c2)CC1)Nc1nc(-c2ccccc2)cs1 | 49.1 | 55.6 | 
O=C(CCN1CCN(S(=O)(=O)c2cccc(Cl)c2)CC1)Nc1nc(-c2ccccc2)cs1 | 32.8 | 61.1 | 
O=C(CCN1CCN(Cc2c(Cl)cccc2Cl)CC1)Nc1nc(-c2ccccc2)cs1 | 37.1 | 73.8 | 
O=C(CCN1CCN(Cc2cccc([N+](=O)[O-])c2)CC1)Nc1nc(-c2ccc(Cl)cc2)cs1 | 58.3 | 77.6 | 
